Tested on: 596521-263-R-J1-PDC complex spheroids, viability % of control
Experiment: Anticancer human tumor 596521-263-R-J1-PDC patient-derived soft tissue sarcoma cell line growth inhibition [GQUAD]
Conditions: for IC50: curve of first compound; for viability, T/C: stronger effect = lower value
Description: DNA G-quadruplex Stabilizer Agents in Combinations in Complex Spheroids
A high-throughput screen of multi-cell type tumor spheroids was designed to identify active combinations of DNA G-quadruplex stabilizer agents and targeted small molecules. Complex spheroids include a stromal component modeled by human endothelial cells (HUVEC) and fibroblasts modeled by human mesenchymal stem cells (MSCs). The concentration ranges selected for each drug and investigational agent were based upon clinically achievable concentrations if the clinical Cmax of the agent was known.
Compounds. The drugs and investigational agents: pidnarulex (CX-5461; NSC782164), APTO-253 (NSC789042), BRACO-19 (NSC847499), peposertib (NSC802822), ceralasertib (NSC780249), elimusertib (NSC800525), camonsertib (NSC841442), AZD-1390 (NSC803789), olaparib (NSC753686), talazoparib (NSC767125), ART-558 (NSC835418), sotorasib (NSC818433), MRTX-1133 (NSC836407), SN-38 (NSC673596), topotecan (NSC609699), etoposide (NSC141540), doxorubicin (NSC123127), gemcitabine (NSC613327), 5-fluorouracil (NSC19893), paclitaxel (NSC125973), vemurafenib (NSC761431), panobinostat (NSC761190), R-306465 (JNJ-16241199; NSC773264), adavosertib (NSC754352), TP-3654 (NSC805149), carboplatin (NSC241240), KSQ-4279 (NSC840948), and staurosporine (NSC755774) were obtained from the National Cancer Institute (NCI) Developmental Therapeutics Program Chemical Repository (34). The FDA-approved anticancer drug set is available from the NCI Developmental Therapeutics Program. […] The stock solutions were prepared in dimethyl sulfoxide (DMSO, Sigma-Aldrich, St. Louis, MO, cat. D2650) at 800-fold the tested concentration and stored at -70 degrees C prior to their use. All drugs and investigational agents were tested over a range starting from a high concentration at or near the clinical Cmax and decreasing in half-log increments. If the clinical Cmax for an agent had not been determined, the highest concentration tested was 10 microM.
2.3 Cell Culture. All cells were maintained in an incubator at 37 degrees C and 5% CO2 with 95% humidity. The PDC lines were cultured according to standard operating procedures established by the NCI PDMR. All PDCs were thawed and cultured in Matrigel-coated flasks prepared with a working solution of 1X Ham's F-12 nutrient mix, without supplementation (Invitrogen, cat. 11765054), 100 U/mL penicillin-streptomycin (Invitrogen, cat. 15140122), and 2.5% Matrigel (Corning Inc., cat. 354248) for the first three passages. The 857933-349-R-J2-PDC line was cultured in 6C/Colon 1B media, which includes advanced DMEM/F-12 (Thermo Fisher Scientific, cat. 12634028), 10 mM HEPES (Thermo Fisher Scientific, cat. 15630080), 1X GlutaMAX supplement (Thermo Fisher Scientific, cat. 35050061), 0.1 mg/mL primocin (InvivoGen, cat. ant-pm-2), 10% defined fetal bovine serum, heat inactivated (HyClone Laboratories Inc., cat. SH30070.03HI), 50% L-WRN conditioned media (ATCC, cat. CRL-3276), 1.25 mM N-Acetyl-L-cysteine (Sigma-Aldrich, cat. A9165), 10 mM nicotinamide (Sigma-Aldrich, cat. N0636), 1X B-27 supplement (Thermo Fisher Scientific, cat. 17504044), 1X N-2 supplement (Thermo Fisher Scientific, cat. 17502048), 10 microM Y-27632 dihydrochloride (Tocris Bioscience, cat. 1254), and 50 ng/mL human EGF recombinant protein (Thermo Fisher Scientific, cat. PHG0311). The 485176-168-R4-J1-PDC line was cultured in Panc media, which includes all 6C/Colon 1B media components plus 100 ng/mL human FGF-10 (Thermo Fisher Scientific, cat. 100-26), 500 nM SB-431542 (Selleckchem, cat. S1067), and gastrin (Tocris, cat. 3006).
[…]

[1] = second compound 0.0316 µM, first compound 0.0316 µM
[2] = second compound 0.0316 µM, first compound 0.316 µM
[3] = second compound 0.1 µM, first compound 0.0316 µM
[4] = second compound 0.1 µM, first compound 0.316 µM
[5] = second compound 0.316 µM, first compound 0.0316 µM
[6] = second compound 0.316 µM, first compound 0.316 µM
[7] = second compound 1 µM, first compound 0.0316 µM
[8] = second compound 1 µM, first compound 0.316 µM
[9] = second compound 3.16 µM, first compound 0.0316 µM
[10] = second compound 3.16 µM, first compound 0.316 µM
[11] = second compound 10 µM, first compound 0.0316 µM
[12] = second compound 10 µM, first compound 0.316 µM
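Further: spheroids exposed to drugs for 7 days before viability reading.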

## CC1COCCN1c1cc(C2(O)CC3CCC(C2)O3)c2cnn(-c3ccn[nH]3)c2n1 (centres undefined) + CN(C)c1ccc(Nc2c3ccc(NC(=O)CCN4CCCC4)cc3nc3cc(NC(=O)CCN4CCCC4)ccc23)cc1
Second compound 0.0316 µM
  IC50: 134 nM
Second compound 0.1 µM
  IC50: 221 nM
Second compound 0.316 µM
  IC50: 148 nM
Second compound 1 µM
  IC50: 162 nM
Second compound 3.16 µM
  IC50: 112 nM
Second compound 10 µM
  IC50: 66.4 nM
[1]
  viability, T/C: 72.6%
Second compound 0.0316 µM, first compound 0.1 µM
  viability, T/C: 48.7%
[2]
  viability, T/C: 40.9%
Second compound 0.0316 µM, first compound 1 µM
  viability, T/C: 29.4%
Second compound 0.0316 µM, first compound 3.16 µM
  viability, T/C: 24.3%
Second compound 0.0316 µM, first compound 10 µM
  viability, T/C: 12.3%
[3]
  viability, T/C: 70.3%
Second compound 0.1 µM, first compound 0.1 µM
  viability, T/C: 56.9%
[4]
  viability, T/C: 48.3%
Second compound 0.1 µM, first compound 1 µM
  viability, T/C: 32.6%
Second compound 0.1 µM, first compound 3.16 µM
  viability, T/C: 22.8%
Second compound 0.1 µM, first compound 10 µM
  viability, T/C: 13.6%
[5]
  viability, T/C: 66.3%
Second compound 0.316 µM, first compound 0.1 µM
  viability, T/C: 48.8%
[6]
  viability, T/C: 47.3%
Second compound 0.316 µM, first compound 1 µM
  viability, T/C: 31.9%
Second compound 0.316 µM, first compound 3.16 µM
  viability, T/C: 20.4%
Second compound 0.316 µM, first compound 10 µM
  viability, T/C: 13.2%
[7]
  viability, T/C: 69.6%
Second compound 1 µM, first compound 0.1 µM
  viability, T/C: 50.3%
[8]
  viability, T/C: 46.6%
Second compound 1 µM, first compound 1 µM
  viability, T/C: 31.1%
Second compound 1 µM, first compound 3.16 µM
  viability, T/C: 24.7%
Second compound 1 µM, first compound 10 µM
  viability, T/C: 14.3%
[9]
  viability, T/C: 58.5%
Second compound 3.16 µM, first compound 0.1 µM
  viability, T/C: 51.2%
[10]
  viability, T/C: 40.5%
Second compound 3.16 µM, first compound 1 µM
  viability, T/C: 35.2%
Second compound 3.16 µM, first compound 3.16 µM
  viability, T/C: 23.9%
Second compound 3.16 µM, first compound 10 µM
  viability, T/C: 15.6%
[11]
  viability, T/C: 61.7%
Second compound 10 µM, first compound 0.1 µM
  viability, T/C: 39%
[12]
  viability, T/C: 36.8%
Second compound 10 µM, first compound 1 µM
  viability, T/C: 28.2%
Second compound 10 µM, first compound 3.16 µM
  viability, T/C: 21.6%
Second compound 10 µM, first compound 10 µM
  viability, T/C: 14.8%

## CC[C@@]1(O)C(=O)OCc2c1cc1n(c2=O)Cc2cc3c(CN(C)C)c(O)ccc3nc2-1 + CN(C)c1ccc(Nc2c3ccc(NC(=O)CCN4CCCC4)cc3nc3cc(NC(=O)CCN4CCCC4)ccc23)cc1
Second compound 0.0316 µM
  IC50: > 316 nM
Second compound 0.1 µM
  IC50: 161 nM
Second compound 0.316 µM
  IC50: > 316 nM
Second compound 1 µM
  IC50: > 316 nM
Second compound 3.16 µM
  IC50: > 316 nM
Second compound 10 µM
  IC50: 76.9 nM
Second compound 0.0316 µM, first compound 0.000999 µM
  viability, T/C: 99.7%
Second compound 0.0316 µM, first compound 0.00316 µM
  viability, T/C: 108%
Second compound 0.0316 µM, first compound 0.00999 µM
  viability, T/C: 91.9%
[1]
  viability, T/C: 62.4%
Second compound 0.0316 µM, first compound 0.0999 µM
  viability, T/C: 63.8%
[2]
  viability, T/C: 53.2%
Second compound 0.1 µM, first compound 0.000999 µM
  viability, T/C: 114%
Second compound 0.1 µM, first compound 0.00316 µM
  viability, T/C: 105%
Second compound 0.1 µM, first compound 0.00999 µM
  viability, T/C: 103%
[3]
  viability, T/C: 65.3%
Second compound 0.1 µM, first compound 0.0999 µM
  viability, T/C: 54.3%
[4]
  viability, T/C: 46.2%
Second compound 0.316 µM, first compound 0.000999 µM
  viability, T/C: 94.5%
Second compound 0.316 µM, first compound 0.00316 µM
  viability, T/C: 97.9%
Second compound 0.316 µM, first compound 0.00999 µM
  viability, T/C: 83.3%
[5]
  viability, T/C: 74.1%
Second compound 0.316 µM, first compound 0.0999 µM
  viability, T/C: 59.4%
[6]
  viability, T/C: 53.6%
Second compound 1 µM, first compound 0.000999 µM
  viability, T/C: 92%
Second compound 1 µM, first compound 0.00316 µM
  viability, T/C: 92.9%
Second compound 1 µM, first compound 0.00999 µM
  viability, T/C: 86.1%
[7]
  viability, T/C: 73.1%
Second compound 1 µM, first compound 0.0999 µM
  viability, T/C: 57.3%
[8]
  viability, T/C: 54.2%
Second compound 3.16 µM, first compound 0.000999 µM
  viability, T/C: 95.8%
Second compound 3.16 µM, first compound 0.00316 µM
  viability, T/C: 88.8%
Second compound 3.16 µM, first compound 0.00999 µM
  viability, T/C: 84.1%
[9]
  viability, T/C: 61.1%
Second compound 3.16 µM, first compound 0.0999 µM
  viability, T/C: 59.1%
[10]
  viability, T/C: 52.5%
Second compound 10 µM, first compound 0.000999 µM
  viability, T/C: 58.5%
Second compound 10 µM, first compound 0.00316 µM
  viability, T/C: 70.6%
Second compound 10 µM, first compound 0.00999 µM
  viability, T/C: 54.6%
[11]
  viability, T/C: 50.1%
Second compound 10 µM, first compound 0.0999 µM
  viability, T/C: 52%
[12]
  viability, T/C: 41.4%

Reference: PubChem BioAssay AID2060500 (Molecular Pharmacology Branch, DTP, NCI, 2025)
